Reference: patent publication US10105382B2, “Therapy regimen and methods to sensitize cancer cells treated with epigenetic therapy to PARP inhibitors in ovarian cancer” (THE JOHNS HOPKINS UNIVERSITY, priority 2014, dated 2018)

Legend:
A2780 = test: Clonogenicity of ovarian cancer cells A2780; assay type: cell-based; conditions: 5AZA alone
Method: (§1) There were 7 days of recovery between the DNMTi and PARPi treatment;
(§2) Multiple cancer cell lines derived from leukemia, breast, ovarian, and lung were treated with low dose DAC/5-AZA (10 nM and 5 nM) for 3 days, followed by removal of the drug for 4 days to 7 days, and subsequent plating of cells in methylcellulose to follow self-renewal capability in the presence or absence of the PARP inhibitor ABT888 (500 nM).

MCF7 = test: Clonogenicity of breast cancer cells MCF7; assay type: cell-based; conditions: 5AZA alone
Method: as §1, §2

MDA MB231 = test: Clonogenicity of breast cancer cells MDA MB231; assay type: cell-based; conditions: 5AZA alone
Method: as §1, §2

OVCAR3 = test: Clonogenicity of ovarian cancer cells OVCAR3; assay type: cell-based; conditions: 5AZA alone
Method: as §1, §2

PARP = conditions: treatment alone
[1] = test system: cancer cell lines derived from leukemia, breast, ovarian, and lung; test: Methylcellulose colony assay in multiple cancer cell lines; assay type: cell-based
Method: as §2

HCC1937 = test: Clonogenicity of breast cancer cells HCC1937; assay type: cell-based; conditions: 5AZA alone
Method: as §1, §2

γH2AX foci = γH2AX foci immunofluorescence in MV411; assay type: cell-based, Human
Method: Immunofluorescence: AML cells (0.2×10^6 cells) were cytospun onto glass slides for 5 min at 200 rpm in PBS 1× on a Shandon Cytospin 4. Cells were then fixed for 30 min in 4% paraformaldehyde, washed 3 times in DPBS (+CaCl2 and MgCl2, DPBS++), permeabilized for 10 min in permeabilization solution (50 mM NaCl, 3 mM MgCl2, 10 mM HEPES, 200 mM Sucrose and 0.5% Triton X-100 in PBS 1×), washed 3 times in DPBS (+CaCl2, +MgCl2) supplemented with BSA 1% (DPBS-BSA) and then blocked overnight in DPBS++ supplemented with 10% serum. After incubation with mouse monoclonal anti-γH2A.x (1:100, Upstate), rabbit polyclonal anti-RAD51 (1:100, Santa Cruz Biotechnologies, Dallas, Tex.), rabbit Poly-ADP-ribose (PAR, 1:200, Axxora, Farmingdale, N.Y.), or isotypes controls for an hour at 37° C. in DPBS-BSA, cells were washed and then incubated with Dylight 594-anti-mouse and Dylight 488-anti rabbit (1:200, KPL, Gaithersburg, Md.) for an hour at 37° C. prior to counterstaining with 4′,6 diamidino-2-phenylindole, dihydrochloride (DAPI, 0.3 μg/mL, Promega, Madison, Wis.) in mounting media (Vectashield, Vector Laboratories, Burlingame, Calif.). Slides were examined using a Nikon fluorescent microscope Eclipse 80i (100×/1.4 oil, Melville, N.Y.). Images of at least 50 cells/slide were captured using a CCD (charge-coupled device) camera and the imaging software NIS Elements (BR 3.00, Nikon).

PARP1 = target: T1, PARP1 (Homo sapiens, UniProt P09874); test: PARP1 trapping in chromatin, Western blot of chromatin extracts of X-irradiated AML cells; assay type: cell-based; conditions: MV411, ABT888 5 μM alone, 4Gy X-ray, FIG. 15E
T1 construct: chromatin extracts from cells X-irradiated (4Gy) to induce DSBs were examined; endogenous in cells; host or cells: MV411 and MOLM14 AML cells
T1 sequence (P09874 whole entry): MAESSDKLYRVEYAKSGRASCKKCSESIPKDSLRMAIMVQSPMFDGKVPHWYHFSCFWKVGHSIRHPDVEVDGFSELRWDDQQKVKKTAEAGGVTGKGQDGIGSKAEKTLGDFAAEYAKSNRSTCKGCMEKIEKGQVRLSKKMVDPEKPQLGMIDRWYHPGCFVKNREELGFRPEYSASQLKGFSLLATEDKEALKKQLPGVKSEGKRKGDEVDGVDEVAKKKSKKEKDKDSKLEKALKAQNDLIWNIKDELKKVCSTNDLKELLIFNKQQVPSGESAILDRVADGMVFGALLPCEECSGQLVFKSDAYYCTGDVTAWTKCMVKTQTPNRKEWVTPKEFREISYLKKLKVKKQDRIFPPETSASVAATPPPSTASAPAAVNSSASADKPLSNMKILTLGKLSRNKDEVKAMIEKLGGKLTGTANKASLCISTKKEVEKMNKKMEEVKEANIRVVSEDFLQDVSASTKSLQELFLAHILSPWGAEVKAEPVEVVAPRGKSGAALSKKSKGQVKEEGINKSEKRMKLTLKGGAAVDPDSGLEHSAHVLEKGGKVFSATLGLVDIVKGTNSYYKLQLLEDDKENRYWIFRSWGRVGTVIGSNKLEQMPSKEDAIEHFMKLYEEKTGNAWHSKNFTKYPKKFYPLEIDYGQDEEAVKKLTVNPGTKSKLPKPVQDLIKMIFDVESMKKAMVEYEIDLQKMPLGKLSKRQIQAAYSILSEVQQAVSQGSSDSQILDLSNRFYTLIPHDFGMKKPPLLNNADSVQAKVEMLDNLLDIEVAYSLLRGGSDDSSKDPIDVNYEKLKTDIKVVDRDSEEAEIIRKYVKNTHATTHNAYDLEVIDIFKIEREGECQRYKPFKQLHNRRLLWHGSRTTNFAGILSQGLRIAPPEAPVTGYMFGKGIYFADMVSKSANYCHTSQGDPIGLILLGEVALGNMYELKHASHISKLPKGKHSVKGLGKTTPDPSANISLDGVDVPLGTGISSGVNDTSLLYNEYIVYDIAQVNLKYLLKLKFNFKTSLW
Text: Irradiation: For irradiation (IR) studies, cells were exposed to 4Gy X-Ray radiation using a Pantak HF320 X-Ray machine (250 kV peak, 13 mA; half-value layer, 1.65 mm copper) at a dose rate of 2.4 Gy/min. After IR, cells were allowed to recover from DNA damage for 4 hrs before extraction of protein.
Subcellular fractionation: To isolate the chromatin bound fraction (CH) and soluble nuclear fraction (NUC), a Subcellular Protein Fractionation kit (Thermo Fisher Scientific, Waltham, Mass.) was used by following the instructions of the manufacturer.
Immunoblotting: Immunoblotting was performed following standard procedures using 5 μg of NUC and CH fractions. Proteins were loaded onto a 4%-20% SDS-PAGE gel (Bio-Rad laboratories, Hercules, Calif.), transferred on PVDF membrane (GE Healthcare Life Sciences, Pittsburgh, Pa.) and blots were washed in Tris Buffered Saline-0.1% Tween 20 (TBST) three times, blocked in TBST-5% bovine serum albumin (TBST-BSA) for an hour at least and first antibodies in TBST-BSA were applied overnight at 4° C. on shaker. […]

[2] = test system: mononuclear cells (MNC) from AML patients; test: Colony forming assay in primary cells from AML patients; assay type: cell-based, Human; conditions: ABT888 500 nM alone; 3 of 6 patients (#15, #29, #16)
[3] = test system: MV411 (homozygote for FLT3-ITD); test: Colony forming (methylcellulose clonogenic) assay in MV411; assay type: cell-based, Human
Method: (§3) Decitabine (DAC, 21.9 mM in DMSO, Sigma-Aldrich) was further diluted in water just before treatment of the cells with 5 nM, 10 nM or 20 nM of DAC. […] DAC was added every 24 hours for 72 hours with daily medium change, then the drug was washed out and cells were allowed to recover for 4 days (unless indicated otherwise) before further use. At day 7, cells were counted with trypan blue, treated with PARPi's, set in culture in 100 mm plates at a density of 0.2×10^6 cells/mL or in methylcellulose for colony forming assay as described later. At days indicated on the figures, 5- to 10×10^6 viable cells (trypan blue exclusion) were recovered, fast frozen and stored at −80° C. for further use for protein extraction.
(§4) Colony forming assay: At Day 7 of the experiment, equal numbers of viable cells (KASUMI-1 cells, 10000 cells/dish; MV411, 5000 cells/dish; MOLM14, 1000 cells/dish; Patients #16, 2000 cells/dish, #9, #13 and #15, 5000 cells/dish, #29, 10000 cells/dish, #30, 20000 cells/dish and #34, 40000 cells/dish) were treated as described earlier and plated in triplicate in 33 mm dish on MethoCult H4435 Enriched (StemCell Technologies, Vancouver, British Columbia, Canada) for MNC, or Methylcellulose Stock Solution (R&D Systems, Minneapolis, Minn.) supplemented with culture media for cell lines according to the instructions of the manufacturer. Ten to nineteen days later, colonies were stained with 2-(4-iodophenyl)-3-(4-nitrophenyl)-5-phenlytetrazolium chloride (1 mg/mL) overnight at 37° C. and colonies containing more than 40 cells were quantified using a colony counter and Protocol3 software (Synbiosis, Frederick, Md.).
(§5) In order to study if the DAC dependent reprogramming (Tsai et al., 2012) could sensitize AML cells to PARPi's, KASUMI-1, MOLM14 and MV411 cells were first treated with increased doses of DAC (5 nM-20 nM) for three days with daily replacement of drugs and media as described previously (Tsai et al., 2012). […]

MOLM14 = test: cells; conditions: Homo sapiens, MOLM-14, 72 h
Method: (§6) Four hours prior to evaluation, 20 μL of MTS labelling reagent ([3-(4, 5-dimethylthiazol-2-yl)-5-(3-carboxymethoxyphenyl)-2-(4-sulfophenyl)-2H-tetrazolium, MTS supplemented with phenazine methosulfate, PMS, Promega, Madison, Wis.) was added to each well. The results were quantified using a VersaMax Elisa Microplate Reader at a wavelength of 490 nm and SoftMax®Pro software (Molecular Devices, Sunnyvale, Calif.). Results (fold changes compared to CRTL) are representative of the mean±SEM of three independent experiments in triplicate.
(§7) Four hours prior to evaluation, 20 μL of MTS labelling reagent ([3-(4,5-dimethylthiazol-2-yl)-5-(3-carboxymethoxyphenyl)-2-(4-sulfophenyl)-2H-tetrazolium, MTS supplemented with phenazine methosulfate, PMS, Promega, Madison, Wis.) was added to each well. The results were quantified using a VersaMax Elisa Microplate Reader at a wavelength of 490 nm and SoftMax®Pro software (Molecular Devices, Sunnyvale, Calif.). Results (Fold changes compared to CRTL) are representative of the mean±SEM of three independent experiments in triplicate.

[4] = test system: KASUMI-1 (AML1-ETO positive); test: Colony forming (methylcellulose clonogenic) assay in KASUMI-1; assay type: cell-based, Human; conditions: ABT888 500 nM, single agent
Method: as §3, with “extraction. […]” for “extraction.”
In order to study if the DAC dependent reprogramming (Tsai et al., 2012) could sensitize AML cells to PARPi's, KASUMI-1, MOLM14 and MV411 cells were first treated with increased doses of DAC (5 nM-20 nM) for three days with daily replacement of drugs and media as described previously (Tsai et al., 2012). […] Ten days later, clonogenic efficiency was measured by counting colonies with more than 40 cells and results were expressed as fold changes compared to controls (CRTL) (FIG. 2).

MV411 = test: cells; conditions: Homo sapiens, MV4-11, 72 h
Method: as §6, §7

[5] = test system: MOLM14 (heterozygote for FLT3-ITD); test: Colony forming (methylcellulose clonogenic) assay in MOLM14; assay type: cell-based, Human
Method: as §3, §4, §5

normal bone marrow (NBM) = test: Colony survival of normal bone marrow; assay type: cell-based; conditions: drug concentrations used; BMN 1 nM in FIG. 18
Method: Colony forming assay: At Day 7 of experiment, equal numbers of viable cells (KASUMI-1 cells 10000 cells/dish; MV411 3000 cells/dish; MOLM14 1000 cells/dish; Patients #16, 2000 cells/dish, #9, #13 and #15, 5000 cells/dish, #29, 10000 cells/dish, #30, 20000 cells/dish and #34, 40000 cells/dish) were treated as described earlier and plated in triplicate in 33 mm dish on MethoCult H4435 Enriched (StemCell Technologies, Vancouver, British Columbia, Canada) for MNC, or Methylcellulose Stock Solution (R&D Systems, Minneapolis, Minn.) supplemented with culture media for cell lines according to the instructions of the manufacturer. Ten to nineteen days later, colonies were stained with 2-(4-iodophenyl)-3-(4-nitrophenyl)-5-phenlytetrazolium chloride (1 mg/mL) overnight at 37° C. and colonies containing more than 40 cells were quantified using colony counter and Protocol3 software (Synbiosis, Frederick, Md.).

[6] = BMN673 between 10 nM and 100 nM

SMILES: Nc1ncn([C@@H]2O[C@H](CO)[C@@H](O)[C@H]2O)c(=O)n1 [5AZA, 5-azacitidine]
- clonogenicity (A2780): decreased
- clonogenicity (MCF7): decreased
- clonogenicity (MDA MB231): decreased
- clonogenicity (OVCAR3): decreased
- PARP activity (PARP): decreases PARP activity
- colony numbers ([1]; DAC/5-AZA (10 nM and 5 nM) for 3 days alone): significant decrease in colony numbers
- clonogenicity (HCC1937): decreased

SMILES: C[C@]1(c2nc3c(C(N)=O)cccc3[nH]2)CCCN1 [ABT888, Veliparib]
- γH2AX foci (γH2AX foci; MV411, ABT888 5 μM alone): an increase in foci
- PARP trapping into chromatin (PARP1): traps PARP into chromatin
- responders: patients with decreased colony number [2]: 50%
- PARP activity (PARP): decreases PARP activity
- colony numbers ([1]; ABT888 500 nM alone): has an effect in some cases
- colony number vs CRTL ([3]; ABT888 500 nM, single agent): significant reduction of colony numbers
- IC50 (MOLM14): > 25 µM
- colony number vs CRTL [4]: not significantly affected
- IC50 (MV411): > 25 µM
- colony number vs CRTL ([5]; ABT888 500 nM, single agent): significant reduction of colony numbers

SMILES: Cn1ncnc1[C@H]1c2n[nH]c(=O)c3cc(F)cc(c23)N[C@@H]1c1ccc(F)cc1 [BMN673]
- γH2AX foci (γH2AX foci; MV411, BMN673 10 nM alone): an increase in foci
- colony survival of normal bone marrow (normal bone marrow (NBM)): not affected
- sensitivity in clonogenic assay ([3]; BMN673 1 nM): barely sensitive
- colony formation [3, 6]: profoundly inhibited colony formation
- IC50 (MOLM14): 4.46 µM
- IC50 (MV411): 6.45 µM
- sensitivity in clonogenic assay ([5]; BMN673 1 nM): cytotoxity occurring
- colony formation [5, 6]: profoundly inhibited colony formation
